Where two headings read alike, the source gives them in different places.
Columns and labels:
in vivo = conditions: male, Locusta migratoria (grasshopper/locust)
[1] = Hemolymph concentration after injection into grasshoppers, measured by LCMS; conditions: male, Locusta migratoria (grasshopper/locust), in vivo
Procedure: 40 μl of a 8.8 mg/ml solution of mianserin in 5% DMSO was injected into 18 grasshoppers, Locusta migratoria (males). After 5 minutes 20 μl of hemolymph was extracted from each locust. A cut was made through the frontal part of the locust head comprising the most frontal parts including the antennae, the compound eyes, the brain and all neural connections between the brain and the antennae and the eyes. The brain was then dissected in saline containing Evans Blue.
2 hemolymph samples were placed in a test tube containing 60 μl of distilled H2O and 200 μl acetonitrile. Each sample was centrifuged for 5 minutes (10000 g at 4° C.).
40 μl of a 8.8 mg/ml solution of mianserin in 5% DMSO was injected into 18 grasshoppers, Locusta migratoria (males). After 15 minutes 20 μl of hemolymph was extracted from each locust. A cut was made through the frontal part of the locust head comprising the most frontal parts including the antennae, the compound eyes, the brain and all neural connections between the brain and the antennae and the eyes. The brain was dissected in saline containing Evans Blue.
40 μl of a 8.8 mg/ml solution of mianserin in 5% DMSO was injected into 18 grasshoppers, Locusta migratoria (males). After 45 minutes 20 μl of hemolymph was extracted from each locust. […]

[2] = cited from earlier work

SMILES: CN1CCN2c3ccccc3Cc3ccccc3C2C1 (stereo not drawn) [mianserin]
- penetration of the grasshopper blood brain barrier (BBB), conclusion in words (in vivo): penetrates the blood brain barrier (BBB) in grasshoppers
- factor by which measured brain concentration is increased when the neural lamella is included (male, Locusta migratoria (grasshopper/locust), in vivo, 5 min): 3

SMILES: O=C1CC2(CCCC2)CC(=O)N1CCCCN1CCN(c2ncccn2)CC1 [buspirone]
- concentration at 5 min (in vivo; 168 µg per insect): < 20 ng/mL
- concentration at 5 min ([1]; 168 µg per insect): 4500 ng/mL

SMILES: NCCc1c[nH]c2ccc(O)cc12 [serotonin]
- concentration at 5 min (in vivo; 12.6 µg per insect, average concentration in brain supernatant, 20 μl of 630 μg/ml injected, 5 minutes, washed in saline, neural lamella included, 3 brains per tube): 86.5 ng/mL
- penetration of the grasshopper blood brain barrier (BBB), conclusion in words (Locusta migratoria, injection): only penetrates the grasshopper BBB to a very low extend, if any at all
- endogenous level in the brain (concentration in brain supernatant) (no injection, washed in saline, 3 brains in one tube): 20 ng/mL
- concentration at 5 min ([1]; 12.6 µg per insect): 4700 ng/mL
- BBB penetration in vertebrates, in words [2]: very low BBB penetration

— patent US9194864B2, “Screening methods employing insects with blood brain barrier” (Entomopharm ApS, priority 2008, dated 2015)
